# Earlier results, collected in patent US4801577A, “Nonapeptide and decapeptide analogs of LHRH useful as LHRH antagonists” (Syntex (U.S.A.) Inc., priority 1987, dated 1989).
# System: rat mast cells
# Conditions: rat mast cells in vitro
row,Substance,ED50 for histamine release [µg/mL]
1,"(N-Ac-D-Nal(2)^1, D-pCl-Phe^2, D-Trp^3, Arg^5, D-Tyr^6, D-Ala^10)LHRH",2
2,"(N-Ac-D-Nal(2)^1, D-pCl-Phe^2, D-Trp^3, D-Arg^6)LHRH",0.2
3,"(N-Ac-D-Nal(2)^1, D-αMe-pCl-Phe^2, D-Pal(3)^3, D-Arg^6, hArg(Et2)^8, D-Ala^10)LHRH",4.9
4,"(N-Ac-D-Nal(2)^1, pCl-Phe^2, D-Trp^3, D-Lys(iPr)^8,Lys(iPr)^6, D-Ala^10)LHRH",6.6
5,"LHRH: natural releasing hormone LHRH, a decapeptide comprised of naturally occurring amino acids",328
